Measurements as given in ChEMBL document CHEMBL1201862, “PubChem BioAssay data set” (2004).
Activity calls are given as the source filed them.

Assays:
Coagulation factor XII = target: T1, Coagulation factor XII (Homo sapiens, UniProt P00748); type: functional;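 also: activated factor XIIa alpha cleaving a fluorogenic AMC peptide substrate; inhibitor potency from loss of enzyme activity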
T1 sequence (P00748 whole entry): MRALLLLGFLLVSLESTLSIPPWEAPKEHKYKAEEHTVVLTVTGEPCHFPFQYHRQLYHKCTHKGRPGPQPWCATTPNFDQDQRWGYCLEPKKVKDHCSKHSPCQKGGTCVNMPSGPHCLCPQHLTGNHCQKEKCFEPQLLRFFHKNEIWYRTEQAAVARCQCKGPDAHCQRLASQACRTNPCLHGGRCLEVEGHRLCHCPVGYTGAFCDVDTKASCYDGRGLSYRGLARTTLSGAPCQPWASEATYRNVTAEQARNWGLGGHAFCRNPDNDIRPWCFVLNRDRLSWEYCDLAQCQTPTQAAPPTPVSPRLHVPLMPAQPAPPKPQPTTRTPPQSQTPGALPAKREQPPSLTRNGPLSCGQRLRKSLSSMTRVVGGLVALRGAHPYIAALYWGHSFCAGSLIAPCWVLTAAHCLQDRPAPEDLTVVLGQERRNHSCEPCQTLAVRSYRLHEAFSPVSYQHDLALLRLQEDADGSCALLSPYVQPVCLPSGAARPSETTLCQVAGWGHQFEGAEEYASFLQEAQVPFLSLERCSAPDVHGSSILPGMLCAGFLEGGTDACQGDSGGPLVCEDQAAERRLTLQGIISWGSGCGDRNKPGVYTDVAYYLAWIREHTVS

[1] = target: Neurotensin receptor type 1 (Homo sapiens, UniProt P30989); type: functional;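 also: Image-based confirmatory dose-response assay measuring agonist activity at NTR1; NTR1-expressing U2OS osteosarcoma cells imaged for beta-arrestin GFP spot formation; agonist potency where compounds increase beta-arrestin recruitment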
Melanocortin receptor 4 = Melanocortin receptor 4 (Homo sapiens, UniProt P32245); type: functional, cell-based;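 also: Cell-based assay with luminescence read-out, confirmatory dose-response testing for agonist activity of biased ligands at MC4R; human U2OS cells with tagged receptor and beta-arrestin; potency of agonists that increase receptor coupling to beta-arrestin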
SUMO-activating enzyme = SUMO-activating enzyme (Homo sapiens, UniProt Q9UBT2); experiment: blockers of UBC9-mediated SUMO conjugation – biochemical, AlphaScreen, SUMOylation inhibitor project, confirmation (AID 2018); type: functional
[2] = target: T2, Voltage-gated N-type calcium channel alpha-1B subunit/Amyloid beta A4 precursor protein-binding family A member 1 (Homo sapiens, UniProt Q00975+Q02410); type: protein assay
[3] = target: T2, Voltage-gated N-type calcium channel alpha-1B subunit/Amyloid beta A4 precursor protein-binding family A member 1; type: protein assay; remark: listed apart in the source
Cytochrome P450 2C9 = Cytochrome P450 2C9 (Homo sapiens, UniProt P11712)
[4] = Trypanosoma cruzi growth suppression in host cells – NIH3T3 host cells, beta-gal luminescence, confirmation (AID 2044); type: functional, cell-based;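 also: intracellular parasites grown in NIH/3T3 mouse fibroblasts as host cells; luminescent beta-galactosidase reporter signal from transgenic T. cruzi replicating inside host cells; inhibitors lower the luminescence signal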
Streptococcus = experiment: GAS UMAA2166 growth inhibition – luminescence, BacTiterGlo, counter-screen for streptokinase expression inhibitor project, dose response (AID 1915); type: functional, organism-based;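 also: potency for reduction of bacterial viability or growth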
[5] = NIH3T3 cell viability loss – ATP luminescence, mouse fibroblasts, counter-screen, dose response (AID 2010); type: functional, cell-based;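 also: cells exposed to compound for about 90 hours before reading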
Streptokinase A = target: T3, Streptokinase A (Streptococcus pyogenes serotype M1, UniProt P10520); experiment: viability-normalized secreted streptokinase activity reduction – plasminogen activation absorbance, OD405, dose response (AID 1914); type: functional, Streptococcus pyogenes M1 GAS;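 also: secreted streptokinase activity via plasminogen activation per viability signal from cell pellet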
T3 sequence (P10520 whole entry): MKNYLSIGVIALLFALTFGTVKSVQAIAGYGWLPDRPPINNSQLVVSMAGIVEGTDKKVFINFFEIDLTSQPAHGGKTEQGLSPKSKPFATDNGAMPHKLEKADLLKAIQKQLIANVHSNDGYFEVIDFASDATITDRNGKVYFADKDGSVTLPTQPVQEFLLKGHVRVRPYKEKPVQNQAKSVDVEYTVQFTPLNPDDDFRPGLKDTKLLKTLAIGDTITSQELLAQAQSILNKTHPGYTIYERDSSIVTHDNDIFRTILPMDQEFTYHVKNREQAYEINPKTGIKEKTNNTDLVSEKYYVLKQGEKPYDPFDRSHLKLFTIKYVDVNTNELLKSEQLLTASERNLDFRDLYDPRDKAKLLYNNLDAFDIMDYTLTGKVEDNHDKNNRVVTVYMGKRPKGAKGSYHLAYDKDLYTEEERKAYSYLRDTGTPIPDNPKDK

Cytochrome P450 2C19 = Cytochrome P450 2C19 (Homo sapiens, UniProt P33261); experiment: Cytochrome panel assay with activity outcomes. Panel member name: p450-cyp2c19 Compounds with AC50 equal or less than 10 uM are considered active; type: functional; settings: read-out: AC50
[6] = system: Streptococcus sp. 'group A'; experiment: Streptococcus pyogenes SK(-)GAS viability under kanamycin – luminescence, BacTiterGlo, confirmation, counter-screen for streptokinase expression inhibitor project, dose response (AID 1900); type: functional, organism-based
INS1 = experiment: INS-1E survival protection against cytokine death – cell-based, luminescence, retest, dose response (AID 449756); type: functional; settings: Rattus norvegicus;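 also: cell death triggered by IL-1 beta plus TNF-alpha plus IFN-gamma mixture; protective hits raise ATP signal compared with cytokine alone wells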
[7] = microbe, parasite or virus in culture; type: functional; settings: Mycobacterium tuberculosis
[8] = viability of PTEN-deleted HCT116 cells – cell-based, HCT116 PTEN knockout, dose response (AID 1047); type: functional;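 also: HCT116 colon tumor cells with PTEN knocked out; cells exposed to compound for 60 hours before readout; potency for loss of cell viability measured by luminescence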
[9] = Luminescence Cell-Based Dose Retest to Confirm Inhibitors of Cancer Stem Cells. [Related pubchem assays (depositor defined):AID2717, AID2721]; type: functional; settings: Homo sapiens
[10] = viability of HCT116 lacking mutant beta-catenin – cell-based, human colon tumor, dose response (AID 1045); type: functional;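 also: HCT116 colon tumor cells with beta catenin knocked out; cells exposed to compound for 60 hours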
H9c2 = experiment: cells; type: functional, cell-based; settings: Rattus norvegicus, H9c2, Myocardium;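 also: confirmatory concentration-response retest of ultra-high-throughput screening hits for modulation of myocardial damage; cell death induced by hydrogen peroxide oxidative stress; compound pretreatment for 60 min then peroxide exposure for 2 h; potency is for protecting the cells against peroxide damage rather than for killing them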
Large T antigen = Large T antigen (Simian virus 40, UniProt P03070); type: functional, Betapolyomavirus macacae;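 also: Confirmatory-stage PubChem screen for compounds that inhibit SV40 T antigen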
[11] = target: T4, Microphthalmia-associated transcription factor (Homo sapiens, UniProt O75030); experiment: reducers of TRPM1 reporter luminescence, concentration series – cell-based, SK-MEL-5, cherry-picked, set 3, MITF inhibitor project, dose response (AID 493073); type: functional;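 also: SK-MEL-5 melanoma cells with luciferase driven by the MITF target TRPM1 promoter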
T4 sequence (O75030 whole entry): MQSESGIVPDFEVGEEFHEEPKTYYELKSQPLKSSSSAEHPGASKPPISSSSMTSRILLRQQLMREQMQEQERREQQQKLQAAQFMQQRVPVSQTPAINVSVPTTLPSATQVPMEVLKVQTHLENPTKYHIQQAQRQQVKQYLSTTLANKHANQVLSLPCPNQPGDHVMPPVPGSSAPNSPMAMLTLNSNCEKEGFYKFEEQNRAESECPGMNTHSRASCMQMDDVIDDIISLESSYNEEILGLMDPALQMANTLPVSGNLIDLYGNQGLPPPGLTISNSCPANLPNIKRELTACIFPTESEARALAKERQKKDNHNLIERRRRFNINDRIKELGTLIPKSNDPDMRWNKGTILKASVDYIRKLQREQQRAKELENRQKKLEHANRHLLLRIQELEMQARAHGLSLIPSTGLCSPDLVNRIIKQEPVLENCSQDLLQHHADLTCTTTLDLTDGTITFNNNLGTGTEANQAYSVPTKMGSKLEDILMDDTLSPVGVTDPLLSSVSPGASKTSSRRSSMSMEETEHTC

[12] = target: T5, Carboxy-terminal domain RNA polymerase II polypeptide A small phosphatase 1 (Homo sapiens, UniProt Q9GZU7); experiment: CTDSP1 inhibitors, concentration-response, biochemical, absorbance readout, ultra-high-throughput screen actives (AID 540297); type: functional
T5 sequence (Q9GZU7 whole entry): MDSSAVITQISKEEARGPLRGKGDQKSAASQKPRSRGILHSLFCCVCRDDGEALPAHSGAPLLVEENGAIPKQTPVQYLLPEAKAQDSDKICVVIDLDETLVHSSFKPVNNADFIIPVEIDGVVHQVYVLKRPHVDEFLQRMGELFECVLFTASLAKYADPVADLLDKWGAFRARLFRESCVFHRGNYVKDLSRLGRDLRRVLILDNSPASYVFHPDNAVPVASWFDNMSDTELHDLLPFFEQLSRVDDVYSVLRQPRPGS

[13] = target: Induced myeloid leukemia cell differentiation protein Mcl-1 (Homo sapiens, UniProt Q07820); type: functional
ORF 73 = target: T6, ORF 73 (Human herpesvirus 8, UniProt O40947); experiment: KSHV LANA DNA-binding disruption – biochemical, fluorescence polarization, cherry-picked samples, dose response (AID 504725); set-up: species or system Human gammaherpesvirus 8;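 also: fluorescence polarization of a labeled DNA duplex reporting LANA DNA binding; potency is for inhibitors that block LANA binding to the DNA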
T6 sequence (O40947 whole entry): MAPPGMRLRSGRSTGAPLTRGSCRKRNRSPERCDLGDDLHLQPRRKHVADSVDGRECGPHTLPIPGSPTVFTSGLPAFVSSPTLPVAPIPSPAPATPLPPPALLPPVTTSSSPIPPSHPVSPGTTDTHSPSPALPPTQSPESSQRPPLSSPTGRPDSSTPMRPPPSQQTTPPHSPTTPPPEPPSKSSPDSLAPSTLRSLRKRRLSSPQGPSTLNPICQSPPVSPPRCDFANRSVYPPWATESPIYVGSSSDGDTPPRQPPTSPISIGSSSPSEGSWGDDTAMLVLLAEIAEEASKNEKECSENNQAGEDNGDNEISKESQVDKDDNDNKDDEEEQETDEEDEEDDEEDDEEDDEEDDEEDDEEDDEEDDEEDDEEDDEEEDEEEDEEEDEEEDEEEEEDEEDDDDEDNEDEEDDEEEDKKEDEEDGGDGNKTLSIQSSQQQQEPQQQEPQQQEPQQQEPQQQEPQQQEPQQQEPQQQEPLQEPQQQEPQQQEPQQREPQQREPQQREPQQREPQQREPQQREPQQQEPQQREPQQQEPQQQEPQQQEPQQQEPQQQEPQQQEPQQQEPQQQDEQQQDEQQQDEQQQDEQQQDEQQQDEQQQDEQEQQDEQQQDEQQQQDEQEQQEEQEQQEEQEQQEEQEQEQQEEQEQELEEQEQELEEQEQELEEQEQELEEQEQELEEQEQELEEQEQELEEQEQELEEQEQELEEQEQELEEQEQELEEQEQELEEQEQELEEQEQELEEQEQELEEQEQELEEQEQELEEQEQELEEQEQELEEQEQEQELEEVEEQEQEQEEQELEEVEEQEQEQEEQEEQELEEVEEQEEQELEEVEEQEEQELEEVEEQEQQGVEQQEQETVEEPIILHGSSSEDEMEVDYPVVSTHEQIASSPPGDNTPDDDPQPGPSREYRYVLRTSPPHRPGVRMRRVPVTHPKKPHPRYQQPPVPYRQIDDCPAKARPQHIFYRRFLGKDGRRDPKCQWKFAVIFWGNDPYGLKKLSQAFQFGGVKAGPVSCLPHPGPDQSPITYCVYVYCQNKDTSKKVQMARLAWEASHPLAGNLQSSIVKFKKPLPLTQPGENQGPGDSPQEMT

Chain of Neurotensin receptor type 1 (P30989 whole entry): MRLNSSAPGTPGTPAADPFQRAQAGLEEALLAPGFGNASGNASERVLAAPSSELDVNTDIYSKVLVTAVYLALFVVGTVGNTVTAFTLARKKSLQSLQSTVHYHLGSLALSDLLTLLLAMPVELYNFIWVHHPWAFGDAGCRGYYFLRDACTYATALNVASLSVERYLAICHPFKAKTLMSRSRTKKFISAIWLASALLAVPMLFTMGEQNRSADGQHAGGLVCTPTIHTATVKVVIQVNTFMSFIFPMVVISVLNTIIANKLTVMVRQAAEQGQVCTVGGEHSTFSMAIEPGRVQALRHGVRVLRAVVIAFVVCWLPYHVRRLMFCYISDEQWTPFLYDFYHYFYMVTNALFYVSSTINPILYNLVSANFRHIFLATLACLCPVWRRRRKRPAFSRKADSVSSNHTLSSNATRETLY
T2 sequence (Q00975 whole entry): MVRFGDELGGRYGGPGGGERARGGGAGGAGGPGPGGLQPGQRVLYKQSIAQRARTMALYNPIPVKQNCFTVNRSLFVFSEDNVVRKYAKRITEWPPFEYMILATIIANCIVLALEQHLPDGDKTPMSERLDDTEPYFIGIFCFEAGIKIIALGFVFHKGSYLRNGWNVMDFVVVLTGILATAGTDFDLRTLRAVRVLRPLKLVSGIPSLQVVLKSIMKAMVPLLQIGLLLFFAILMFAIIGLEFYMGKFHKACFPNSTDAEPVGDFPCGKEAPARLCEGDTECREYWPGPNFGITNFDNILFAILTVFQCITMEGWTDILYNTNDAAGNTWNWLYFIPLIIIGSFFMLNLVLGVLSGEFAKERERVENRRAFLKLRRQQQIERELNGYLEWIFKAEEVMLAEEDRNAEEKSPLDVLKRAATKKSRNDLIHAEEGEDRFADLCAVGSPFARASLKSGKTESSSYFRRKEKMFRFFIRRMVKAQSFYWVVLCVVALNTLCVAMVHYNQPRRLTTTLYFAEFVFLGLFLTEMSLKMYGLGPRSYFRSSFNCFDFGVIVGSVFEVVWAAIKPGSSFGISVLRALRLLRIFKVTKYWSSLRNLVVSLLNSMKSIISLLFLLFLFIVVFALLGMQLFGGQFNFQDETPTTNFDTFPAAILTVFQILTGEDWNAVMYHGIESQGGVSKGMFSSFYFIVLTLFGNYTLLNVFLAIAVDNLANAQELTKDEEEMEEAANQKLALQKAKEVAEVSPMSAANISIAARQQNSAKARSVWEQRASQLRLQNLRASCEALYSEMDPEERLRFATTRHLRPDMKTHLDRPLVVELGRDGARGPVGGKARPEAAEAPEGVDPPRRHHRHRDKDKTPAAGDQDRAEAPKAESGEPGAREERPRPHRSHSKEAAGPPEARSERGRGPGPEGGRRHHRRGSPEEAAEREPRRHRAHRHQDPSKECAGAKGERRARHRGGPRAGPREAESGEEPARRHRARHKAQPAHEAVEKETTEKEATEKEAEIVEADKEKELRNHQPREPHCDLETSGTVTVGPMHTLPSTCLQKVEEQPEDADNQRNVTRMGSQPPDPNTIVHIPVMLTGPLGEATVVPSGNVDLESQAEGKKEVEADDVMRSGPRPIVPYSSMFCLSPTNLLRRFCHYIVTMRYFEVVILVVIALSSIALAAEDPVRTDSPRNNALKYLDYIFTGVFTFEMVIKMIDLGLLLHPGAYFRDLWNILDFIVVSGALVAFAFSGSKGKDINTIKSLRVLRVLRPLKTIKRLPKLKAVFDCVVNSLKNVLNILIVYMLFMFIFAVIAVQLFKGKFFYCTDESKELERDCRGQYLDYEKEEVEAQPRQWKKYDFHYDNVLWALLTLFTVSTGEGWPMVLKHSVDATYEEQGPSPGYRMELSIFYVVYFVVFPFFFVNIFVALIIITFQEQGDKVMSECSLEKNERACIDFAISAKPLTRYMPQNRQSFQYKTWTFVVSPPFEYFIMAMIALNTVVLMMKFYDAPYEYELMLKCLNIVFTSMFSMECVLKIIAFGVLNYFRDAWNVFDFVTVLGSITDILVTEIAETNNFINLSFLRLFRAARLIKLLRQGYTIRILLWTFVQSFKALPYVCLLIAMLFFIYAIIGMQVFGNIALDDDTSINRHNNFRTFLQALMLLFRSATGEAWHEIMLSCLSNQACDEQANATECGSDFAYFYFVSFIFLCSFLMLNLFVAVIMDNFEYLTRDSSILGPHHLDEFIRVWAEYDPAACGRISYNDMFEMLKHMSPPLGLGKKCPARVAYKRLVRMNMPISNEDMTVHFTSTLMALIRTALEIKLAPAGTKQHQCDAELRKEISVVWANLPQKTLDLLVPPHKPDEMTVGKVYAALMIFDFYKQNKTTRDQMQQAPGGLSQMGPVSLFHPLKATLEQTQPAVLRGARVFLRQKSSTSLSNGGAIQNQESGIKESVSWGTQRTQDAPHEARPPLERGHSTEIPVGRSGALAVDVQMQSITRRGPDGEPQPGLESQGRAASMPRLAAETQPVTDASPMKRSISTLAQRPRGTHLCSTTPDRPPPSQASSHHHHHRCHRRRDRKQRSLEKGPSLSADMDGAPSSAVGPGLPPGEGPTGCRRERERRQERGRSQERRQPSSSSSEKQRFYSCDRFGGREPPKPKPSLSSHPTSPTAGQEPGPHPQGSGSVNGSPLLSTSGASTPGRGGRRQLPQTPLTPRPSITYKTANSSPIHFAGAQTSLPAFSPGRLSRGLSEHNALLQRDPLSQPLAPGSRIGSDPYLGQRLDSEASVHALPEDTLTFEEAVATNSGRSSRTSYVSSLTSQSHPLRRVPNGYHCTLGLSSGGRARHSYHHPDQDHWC
T2 sequence (Q02410 whole entry): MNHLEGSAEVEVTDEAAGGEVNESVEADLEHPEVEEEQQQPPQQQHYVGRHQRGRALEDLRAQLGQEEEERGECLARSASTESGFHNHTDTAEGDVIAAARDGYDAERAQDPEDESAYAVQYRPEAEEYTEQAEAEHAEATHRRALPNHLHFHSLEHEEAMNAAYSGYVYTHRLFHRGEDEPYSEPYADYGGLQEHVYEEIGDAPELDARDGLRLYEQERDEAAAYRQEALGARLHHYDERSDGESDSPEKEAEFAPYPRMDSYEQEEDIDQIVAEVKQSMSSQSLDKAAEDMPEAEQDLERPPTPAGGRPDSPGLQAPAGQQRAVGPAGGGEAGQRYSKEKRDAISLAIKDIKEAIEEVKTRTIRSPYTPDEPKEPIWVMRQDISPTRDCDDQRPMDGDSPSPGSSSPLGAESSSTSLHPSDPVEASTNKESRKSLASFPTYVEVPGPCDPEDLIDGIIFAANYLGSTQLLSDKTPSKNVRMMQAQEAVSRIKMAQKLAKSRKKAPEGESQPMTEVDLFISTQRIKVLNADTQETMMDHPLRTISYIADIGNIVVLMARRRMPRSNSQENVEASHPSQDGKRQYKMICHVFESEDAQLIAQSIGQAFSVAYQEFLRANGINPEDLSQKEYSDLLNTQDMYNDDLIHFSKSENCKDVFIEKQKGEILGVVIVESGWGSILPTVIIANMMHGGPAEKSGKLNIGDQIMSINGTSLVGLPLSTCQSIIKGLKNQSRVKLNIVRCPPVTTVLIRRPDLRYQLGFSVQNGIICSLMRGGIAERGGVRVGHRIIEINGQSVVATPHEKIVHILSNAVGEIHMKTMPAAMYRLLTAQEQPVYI
Chain of Induced myeloid leukemia cell differentiation protein Mcl-1 (Q07820 whole entry): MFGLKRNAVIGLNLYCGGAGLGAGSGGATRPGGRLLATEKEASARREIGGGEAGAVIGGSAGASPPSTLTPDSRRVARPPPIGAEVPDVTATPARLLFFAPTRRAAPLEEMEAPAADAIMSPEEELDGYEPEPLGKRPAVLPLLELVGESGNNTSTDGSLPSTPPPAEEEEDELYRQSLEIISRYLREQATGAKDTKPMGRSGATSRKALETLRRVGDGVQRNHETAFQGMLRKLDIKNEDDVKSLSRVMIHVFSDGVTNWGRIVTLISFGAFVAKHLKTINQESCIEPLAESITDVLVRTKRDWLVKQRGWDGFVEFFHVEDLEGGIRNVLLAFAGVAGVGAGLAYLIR
Chain of Cytochrome P450 2C9 (P11712 whole entry): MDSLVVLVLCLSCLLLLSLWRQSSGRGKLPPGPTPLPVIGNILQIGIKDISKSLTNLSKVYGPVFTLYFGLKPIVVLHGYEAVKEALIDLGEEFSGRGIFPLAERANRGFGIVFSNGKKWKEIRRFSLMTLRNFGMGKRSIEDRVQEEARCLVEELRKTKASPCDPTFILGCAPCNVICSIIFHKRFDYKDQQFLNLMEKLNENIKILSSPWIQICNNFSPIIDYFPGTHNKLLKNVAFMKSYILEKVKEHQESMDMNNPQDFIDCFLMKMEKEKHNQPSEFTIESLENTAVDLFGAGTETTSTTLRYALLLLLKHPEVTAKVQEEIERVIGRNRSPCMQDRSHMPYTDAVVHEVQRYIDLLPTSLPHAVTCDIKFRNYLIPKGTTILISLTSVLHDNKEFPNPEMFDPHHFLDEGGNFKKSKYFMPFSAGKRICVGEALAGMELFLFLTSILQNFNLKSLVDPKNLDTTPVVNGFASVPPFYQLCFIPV
Chain of Melanocortin receptor 4 (P32245 whole entry): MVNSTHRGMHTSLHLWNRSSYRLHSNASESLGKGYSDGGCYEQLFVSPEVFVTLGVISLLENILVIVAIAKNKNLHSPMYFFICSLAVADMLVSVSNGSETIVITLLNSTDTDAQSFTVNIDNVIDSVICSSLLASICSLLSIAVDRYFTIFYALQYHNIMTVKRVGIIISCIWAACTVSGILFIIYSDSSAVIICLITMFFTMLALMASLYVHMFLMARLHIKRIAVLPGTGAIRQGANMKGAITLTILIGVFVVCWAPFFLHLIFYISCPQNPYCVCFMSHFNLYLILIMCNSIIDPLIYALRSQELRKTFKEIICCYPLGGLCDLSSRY

In the case of O=C(CSc1nnc(COc2ccccc2)n1Cc1ccco1)c1ccc(F)cc1, the IC50 (Coagulation factor XII) is reported as > 50 µM (inactive).
With Clc1ccc(C2=Nn3c(nnc3-c3cc(-c4ccccc4)n[nH]3)SC2)cc1 the EC50 [1] was 37.9 µM (inactive) and the EC50 (Melanocortin receptor 4) was > 89.2 µM (inactive).
With Nc1ccc2nc(-c3ccc(-c4nc5ccc(N)cc5[nH]4)cc3)[nH]c2c1 the IC50 (SUMO-activating enzyme) was > 100 µM (inactive), the IC50 [2] was 5.62 µM (active) and the IC50 [3] was > 50 µM (inactive).
In the case of Cc1cc(C)n(-c2nc(Nc3ccccc3C)nc(-n3nc(C)cc3C)n2)n1, the EC50 [1] is reported as 7.86 µM (active), the AC50 (Cytochrome P450 2C9) is reported as 15.8 µM (inconclusive) and the EC50 [4] is reported as 1.07 µM (active). For the same molecule, the EC50 (Streptococcus) was 23.2 µM (active), the EC50 [5] was > 60 µM (inconclusive) and the EC50 (Streptokinase A) was > 150 µM (not active). The AC50 (Cytochrome P450 2C19) was 39.8 µM (inconclusive) and the EC50 [6] was 8.77 µM (active).
With CCc1ccc2c(c1)C1(C(=O)N2)N2CCCC2C(C(=O)c2ccc3ccccc3c2)C12C(=O)Nc1ccccc12 (stereo unspecified) the EC50 [1] was 9.78 µM (active), the AC50 (INS1) was 6.87 µM (active) and the CC50 [7] was 16.2 µM (active). The EC50 [8] was 10.2 µM (active), the AC50 [9] was 3.05 µM (active) and the EC50 [10] was 10.1 µM (active).
With COc1cccc(OC)c1-c1nn2c(-c3ccco3)nnc2s1 the IC50 (H9c2) was > 79 µM (inactive) and the IC50 (Coagulation factor XII) was > 50 µM (inactive).
In the case of CC(C)C(OC(=O)c1cccs1)C(=O)NCc1ccc2c(c1)OCO2 (stereo unspecified), the IC50 (Coagulation factor XII) is reported as > 50 µM (inactive).
For O=C1NC(=O)C(=Cc2ccc(-c3cc(Cl)ccc3[N+](=O)[O-])o2)C(=O)N1, the IC50 (Large T antigen) was 48.3 µM (active), the IC50 [2] was 4.58 µM (active) and the AC50 [11] was 17.2 µM (active). For the same molecule, the IC50 [3] was > 50 µM (inactive).
For O=C(O)CCn1cc(C=C2C(=O)NC(=S)NC2=O)c(-c2cc3ccccc3oc2=O)n1, the IC50 [12] was 13 µM (active), the IC50 [13] was 3.42 µM (active) and the IC50 [2] was 17.8 µM (active). For the same molecule, the IC50 [3] was 6.27 µM (active).
With CC(C)c1ccc(NC(=O)c2ccc(Br)o2)cc1 the IC50 (Coagulation factor XII) was > 50 µM (inactive).
For Cc1cc2c(c(=O)n1C)C(Cc1ccccc1)C(C#N)=C(N)O2 (stereo unspecified), the IC50 (Coagulation factor XII) was > 50 µM (inactive).
For CCOC(=O)C1Nc2ccccc2C2C(O)C(O)CC12 (stereo unspecified), the AC50 (ORF 73) was > 350 µM (inactive).
For O=C(N/N=C/c1coc2ccccc2c1=O)c1cc(O)cc(O)c1, the IC50 [2] was 7.54 µM (active) and the IC50 [3] was > 50 µM (inactive).
